In patent US9925166B2, “Methods of treating an overweight or obese subject” (Zafgen, Inc., priority 2008, dated 2018):

Biological target: T1, MetAP-2 (Mus musculus, UniProt O08663)
T1 construct: from tissue; host or cells: adipose tissue of diet-induced obese mice
Assay: ELISA assay of MetAP-2 binding (free MetAP-2) in adipose tissue lysates of dosed diet-induced obese mice
Protocol: Diet-induced obese mice were orally (p.o.) administered fumagillin (3 mg/kg or 10 mg/kg; Medivet), subcutaneously administered (s.c.) TNP-470 (1 mg/kg, 3 mg/kg, 10 mg/kg, or 30 mg/kg; synthesized by standard semi-synthetic processes as described in European Patent EP 0 357 061), or administered a solution of 10% dimethyl sulfoxide (DMSO; control; Sigma-Aldrich). Mice were sacrificed and adipose tissue samples were obtained.
An ELISA assay of MetAP-2 binding was conducted with tissue lysates prepared from the adipose tissue samples. The MetAP-2 ELISA is a quantitative assay to determine the amount of free MetAP-2 in tissue or cell lysates, i.e., MetAP-2 not covalently bound to fumagillin or TNP-470. The assay takes advantage of the fact that biotinylated fumagillin can bind to the catalytic site of the MetAP-2 enzyme only if this site has not already been derivatized by fumagillin or TNP-470. The biotinylated MetAP-2-inhibitor complex was captured on a streptavidin-coated plate and detected with a rabbit anti-MetAP-2 antibody (Zymed Laboratories Inc.). Horseradish peroxidase-conjugated anti-rabbit immunoglobulin G (IgG) was added to detect the MetAP-2 antibody immobilized to the streptavidin-coated plate with its covalently bound biotinylated fumagillin. Tetramethylbenzidine (TMB) substrate was added and the reaction was stopped by addition of sulfuric acid. Analysis was performed by determining absorption at 450 nm. Human recombinant MetAP-2 (R&D Systems), pre-bound to biotinylated fumagillin, was used to generate a standard curve.

T1 sequence (O08663 whole entry): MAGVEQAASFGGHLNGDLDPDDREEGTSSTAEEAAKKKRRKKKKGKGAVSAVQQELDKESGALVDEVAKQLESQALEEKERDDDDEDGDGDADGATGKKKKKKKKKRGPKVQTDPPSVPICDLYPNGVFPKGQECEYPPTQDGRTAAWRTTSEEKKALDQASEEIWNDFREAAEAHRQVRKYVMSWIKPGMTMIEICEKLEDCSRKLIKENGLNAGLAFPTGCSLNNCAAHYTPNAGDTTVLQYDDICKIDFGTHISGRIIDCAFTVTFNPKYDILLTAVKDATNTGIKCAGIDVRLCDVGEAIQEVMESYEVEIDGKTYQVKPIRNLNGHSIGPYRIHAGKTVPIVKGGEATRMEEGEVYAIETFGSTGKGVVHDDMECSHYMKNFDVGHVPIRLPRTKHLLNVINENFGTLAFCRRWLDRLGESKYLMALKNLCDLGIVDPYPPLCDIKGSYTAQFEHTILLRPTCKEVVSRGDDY

CO[C@@H]1[C@H](OC(=O)NC(=O)CCl)CC[C@]2(CO2)[C@H]1[C@@]1(C)O[C@@H]1CC=C(C)C [TNP-470]
binding to MetAP-2 in adipose tissue (TNP-470 subcutaneously 1, 3, 10 or 30 mg/kg, diet-induced obese mice, FIG. 1): binds MetAP-2 in a dose dependent manner
binding to MetAP-2 in adipose tissue compared to orally administered fumagillin at the same dosages (s.c. TNP-470 vs p.o. fumagillin, 3 mg/kg and 10 mg/kg): greater binding
